Laboratory results reported in patent US12268667B2, “JAK1 pathway inhibitors for the treatment of prurigo nodularis” (Incyte Corporation, priority 2021, dated 2025).

Experiments:
[1] = target: human JAK2 (a.a. 828-1132) (Homo sapiens (Human), UniProt O60674); assay: In vitro JAK kinase assay (HTRF), JAK2; format: biochemical; details: JAK2/JAK1 IC50 ratio at 1 mM ATP
Protocol: (§1) The catalytic activity of JAK1, JAK2 or JAK3 are assayed by measuring the phosphorylation of a biotinylated peptide. The phosphorylated peptide was detected by homogenous time resolved fluorescence (HTRF). […] Reactions are carried out at room temperature for 1 hour and then stopped with 20 μL 45 mM EDTA, 300 nM SA-APC, 6 nM Eu-Py20 in assay buffer (Perkin Elmer, Boston, MA). Binding to the Europium labeled antibody takes place for 40 minutes and HTRF signal was measured on a Fusion plate reader (Perkin Elmer, Boston, MA).

[2] = target: human JAK1 (a.a. 837-1142) (Homo sapiens, UniProt P23458); assay: In vitro JAK kinase assay (HTRF), JAK1; format: biochemical; details: 1 mM ATP
Protocol: as §1

human JAK2 (a.a. 828-1132), sequence (O60674 828-1132): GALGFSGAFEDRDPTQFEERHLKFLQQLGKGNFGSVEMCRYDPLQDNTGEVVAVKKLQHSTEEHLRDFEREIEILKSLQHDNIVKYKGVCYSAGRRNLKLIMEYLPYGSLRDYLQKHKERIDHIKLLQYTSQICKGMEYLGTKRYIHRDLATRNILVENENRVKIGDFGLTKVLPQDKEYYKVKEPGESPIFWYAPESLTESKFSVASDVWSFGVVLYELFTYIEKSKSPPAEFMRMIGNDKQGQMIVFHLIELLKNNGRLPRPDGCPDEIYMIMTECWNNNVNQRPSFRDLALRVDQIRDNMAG

Structure (SMILES)	JAK2/JAK1 [1]	IC50 [2] [nM]
N#CC[C@]1(n2cc(-c3ncnc4[nH]ccc34)cn2)C[C@H](N2CCN(C(=O)c3ccnc(C(F)(F)F)n3)CC2)C1 [Compound 10, [trans-1-[4-(7H-pyrrolo[2,3-d]pyrimidin-4-yl)-1H-pyrazol-1-yl]-3-(4-{[2-(trifluoromethyl)pyrimidin-4-yl]carbonyl}piperazin-1-yl)cyclobutyl]acetonitrile]	>10	< 10
CCNCc1cc(O[C@H]2CC[C@@H](N3CC(CC#N)(n4cc(-c5ncnc6[nH]ccc56)cn4)C3)CC2)nc(C(F)(F)F)c1 [Compound 19, {1-(cis-4-{[4-[(ethylamino)methyl]-6-(trifluoromethyl)pyridin-2-yl]oxy}cyclohexyl)-3-[4-(7H-pyrrolo[2,3-d]pyrimidin-4-yl)-1H-pyrazol-1-yl]azetidin-3-yl}acetonitrile]	>10	< 10
N#CCC(C1CCN(c2nc3cccnc3o2)C1)n1cc(-c2ncnc3[nH]ccc23)cn1 (stereo not drawn) [Compound 7, 3-(1-[1,3]oxazolo[5,4-b]pyridin-2-ylpyrrolidin-3-yl)-3-[4-(7H-pyrrolo[2,3-d]pyrimidin-4-yl)-1H-pyrazol-1-yl]propanenitrile]	>10	< 10
C[C@H](O)CNCc1cc(OC2CCN([C@H]3C[C@](CC#N)(n4cc(-c5ncnc6[nH]ccc56)cn4)C3)CC2)nc(C(F)(F)F)c1 [Compound 25, {trans-3-(4-{[4-({[(2S)-2-hydroxypropyl]amino}methyl)-6-(trifluoromethyl)pyridin-2-yl]oxy}piperidin-1-yl)-1-[4-(7H-pyrrolo[2,3-d]pyrimidin-4-yl)-1H-pyrazol-1-yl]cyclobutyl}acetonitrile]	>10	< 10
N#CCC1(n2cc(-c3ncnc4[nH]ccc34)cn2)CN(C2CCN(C(=O)c3ccnc(C(F)(F)F)c3F)CC2)C1 [Compound 4, {1-{1-[3-Fluoro-2-(trifluoromethyl)isonicotinoyl]piperidin-4-yl}-3-[4-(7H-pyrrolo[2,3-d]pyrimidin-4-yl)-1H-pyrazol-1-yl]azetidin-3-yl}acetonitrile]	>10	< 10
N#CCC1(n2cc(-c3ncnc4[nH]ccc34)cn2)CN(C2CCN(C(=O)c3ccnc(C(F)(F)F)n3)CC2)C1 [Compound 3, [3-[4-(7H-pyrrolo[2,3-d]pyrimidin-4-yl)-1H-pyrazol-1-yl]-1-(1-{[2-(trifluoromethyl)pyrimidin-4-yl]carbonyl}piperidin-4-yl)azetidin-3-yl]acetonitrile]	>10	< 10
N#CC[C@]1(n2cc(-c3ncnc4[nH]ccc34)cn2)C[C@H](N2CCC(Oc3cc(CN4CCC[C@H]4CO)cc(C(F)(F)F)n3)CC2)C1 [Compound 12, {trans-3-(4-{[4-{[(2S)-2-(hydroxymethyl)pyrrolidin-1-yl]methyl}-6-(trifluoromethyl)pyridin-2-yl]oxy}piperidin-1-yl)-1-[4-(7H-pyrrolo[2,3-d]pyrimidin-4-yl)-1H-pyrazol-1-yl]cyclobutyl}acetonitrile]	>10	< 10
N#CCC1(n2cc(-c3ncnc4[nH]ccc34)cn2)CN([C@H]2CC[C@@H](Oc3cc(CCO)nc(C(F)(F)F)n3)CC2)C1 [Compound 18, {1-(cis-4-{[6-(2-hydroxyethyl)-2-(trifluoromethyl)pyrimidin-4-yl]oxy}cyclohexyl)-3-[4-(7H-pyrrolo[2,3-d]pyrimidin-4-yl)-1H-pyrazol-1-yl]azetidin-3-yl}acetonitrile]	>10	< 10
N#CC[C@]1(n2cc(-c3ncnc4[nH]ccc34)cn2)C[C@H](N2CCC(Oc3cc(CCO)cc(C(F)(F)F)n3)CC2)C1 [Compound 26, {trans-3-(4-{[4-(2-hydroxyethyl)-6-(trifluoromethyl)pyridin-2-yl]oxy}piperidin-1-yl)-1-[4-(7H-pyrrolo[2,3-d]pyrimidin-4-yl)-1H-pyrazol-1-yl]cyclobutyl}acetonitrile]	>10	< 10
